The source of these data is article PMC5423902, “CXCL9-Derived Peptides Differentially Inhibit Neutrophil Migration In Vivo through Interference with Glycosaminoglycan Interactions” (Frontiers in Immunology, 2017).

One may read the Kd as the constant that tells how readily two partners part at equilibrium.

The nature of experiment [1]: Isothermal fluorescence titration (IFT), LMWH. The note with it: for affinity for LMWH: IFT, both COOH-terminal peptides compared. It counts as binding. As to the method:
To study the interaction between CXCL9(74-93) and GAGs, titration experiments were performed as described by Gerlza et al. ([46]) using TAMRA-labeled synthetic CXCL9(74-93), TAMRA-labeled synthetic CXCL9(74-103), HS (Iduron BN1, Manchester, UK), low molecular weight heparin (LMWH; Iduron BN5), and chondroitin sulfate (CS; Carbosynth, Compton, UK).

Experiment [2] concerns cellular GAGs on CHO cells. In words: Binding of biotinylated peptides to CHO cells (cellular GAGs), flow cytometry. The conditions noted are these: for binding to CHO cells: NH2-terminally biotinylated peptide, streptavidin-allophycocyanin. It counts as cell-based, Chinese hamster. The protocol:
Chinese hamster ovary (CHO) cells were a gift from M. Parmentier (ULB, Brussels, Belgium) and were cultured in Ham’s F-12 medium (with L-glutamine; Lonza, Belgium) supplemented with 10% fetal calf serum (FCS) and 0.8% G418 (Geneticin®; Life Technologies), as described ([44]). To inhibit sulfation of cellular GAGs, CHO cells were cultured in the presence of 100 mM sodium chlorate (NaClO3) for 24 h as previously described ([42]).
(§1) Binding of biotinylated CXCL9(74-103) and CXCL9(74-93) to CHO cells was assessed by flow cytometry as recently described ([42]). Briefly, cells were detached with phosphate-buffered saline (PBS) with 0.02% ethylenediaminetetraacetic acid (EDTA) and incubated with NH2-terminally biotinylated peptides. Subsequently, cells were incubated with streptavidin-allophycocyanin (BD Biosciences, San Jose, CA, USA) and analyzed by flow cytometry (FACSCalibur, BD Biosciences). To confirm inhibition of sulfation of cellular GAGs, part of the cells were stained with a mouse monoclonal anti-human HS antibody (Immunosource, Schilde, Belgium) and a secondary phycoerythrin-labeled goat anti-mouse antibody (BD Biosciences). Finally, cells were analyzed by flow cytometry. Analogously, binding of 100 nM biotinylated CXCL8 in the presence or absence of CXCL9(74-103) or CXCL9(74-93) was compared on CHO cells.
Figure 2 CXCL9(74-93) interacts with cellular glycosaminoglycans (GAGs). The interaction of the COOH-terminal CXCL9 peptides with Chinese hamster ovary (CHO) cells was assessed by flow cytometric analysis. (A) CHO cells were treated with dilutions of NH2-terminally biotinylated CXCL9(74-103) and CXCL9(74-93), which were detected by streptavidin-allophycocyanin. (B) To ensure that the binding of CXCL9(74-93) was GAG-mediated, CHO cells were treated with sodium chlorate (NaClO3) to reduce the sulfation of GAGs. Binding of biotinylated CXCL9(74-93) to cells, treated or untreated with NaClO3, was detected by streptavidin-allophycocyanin. The mean (+SEM) fluorescence intensity of bound biotinylated CXCL9 peptides to CHO cells is indicated on the y-axis (n ≥ 4). A statistical comparison to evaluate the binding of biotinylated peptides on CHO cells [compared to the corresponding concentration of CXCL9(74-103) (A) or to the binding to cells not treated with NaClO3 (B)] was performed using the Mann–Whitney U-test (*p < 0.05; **p < 0.01).
(In general: In flow cytometry, cells or beads pass a laser one at a time.)

For experiment [3], the system named is CXCL8(1-77) binding to heparin. Briefly: Competition with CXCL8 for binding to immobilized heparin (ELISA-like). On the set-up: species or system human. The conditions noted are these: heparin-coated plates, CXCL8(1-77) 0-300 nM, 2 h at 37°C; anti-CXCL8 detection, 450 nm; n ≥ 4; Figure 3A. As to the method:
(§2) The ability of the COOH-terminal peptides of CXCL9 and CXCL4 to compete for GAG binding with the inflammatory chemokines CXCL8 and CXCL1 was evaluated on heparin-binding plates [BD Biosciences or produced by Jason Whittle (School of Engineering/Future Industries Institute, University of South Australia, Australia)] ([42], [47]). In brief, GAGs (heparin, HS, and CS; Iduron; 25 µg/ml) were coated overnight at room temperature. Dilutions of COOH-terminal CXCL9 or CXCL4 peptide combined with recombinant human CXCL8(1-77) or recombinant murine CXCL1(1-72) (Peprotech, Rocky Hill, NJ, USA) were added in duplicate and incubated for 2 h at 37°C. Subsequently, bound CXCL8 or CXCL1 was detected with biotinylated polyclonal rabbit anti-human CXCL8 or biotinylated polyclonal goat anti-mouse CXCL1 (Peprotech) and horse radish peroxidase-labeled streptavidin. Finally, the peroxidase activity was quantified at 450 nm.
(§3) Figure 3 CXCL9(74-93) competes with CXCL8 for binding to heparin, heparan sulfate (HS), and cellular glycosaminoglycans (GAGs). Competition between CXCL8 and COOH-terminal CXCL9 or CXCL4 peptides for binding to immobilized heparin (A) or HS (B) and to Chinese hamster ovary (CHO) cells (C) was performed. […] Bound CXCL8 was detected with biotinylated anti-human CXCL8 antibodies. (C) Binding of NH2-terminally biotinylated CXCL8(1-77) (300 nM) to CHO cells in the presence or absence of an excess CXCL9 peptide was detected by streptavidin-allophycocyanin and flow cytometry. The mean (± SEM) percentage inhibition of binding of CXCL8(1-77) to heparin, HS or cellular GAGs is indicated on the y-axis (n ≥ 4). Statistical comparison of the different competitors with CXCL9(74–103) was performed using the Mann–Whitney U-test (*p < 0.05).
(In general: ELISA stands for enzyme-linked immunosorbent assay.)

Experiment [4] concerns CXCL8(1-77) binding to cellular GAGs on CHO cells. Briefly: Competition with biotinylated CXCL8 for binding to CHO cells, flow cytometry. It counts as cell-based, Chinese hamster. The note with it: mean, n ≥ 4, Figure 3C (300 nM CXCL8). As to the method:
as §1, §3

The test system of experiment [5] is CXCL1(1-72) binding to chondroitin sulfate (CS). Briefly: Competition with CXCL1 for binding to immobilized CS. On the set-up: species or system murine. The conditions noted are these: n ≥ 3, Figure 6B; for maximum inhibition of CXCL1 binding to CS: maximum achieved. As to the method: as §2
Competition between CXCL1 and COOH-terminal CXCL9 peptides for binding to immobilized heparan sulfate (HS) (A) and chondroitin sulfate (CS) (B) was performed. […] Bound CXCL1 was detected with biotinylated polyclonal goat anti-mouse CXCL1 antibodies. The mean (± SEM) percentage inhibition of CXCL1 binding to GAGs is indicated on the y-axis (n ≥ 3). Statistical comparison of the different competitors with CXCL9(74–103) was performed using the Mann–Whitney U-test.

Take “74KKKQKNGKKHQKKKVLKVRK93 [CXCL9(74-93), COOH-terminal peptide of CXCL9 lacking the 10 COOH-terminal amino acids of CXCL9(74-103)]”: the “affinity for LMWH” value in experiment [1] is “high and comparable affinity”. Moreover, in experiment [1] (isothermal fluorescence titration, TAMRA-labeled peptide, read-out: affinity (KD value) for LMWH), the Kd is 0.063 ± 0.013 µM. Further, the “binding to CHO cells after reduction of GAG sulfation” value in experiment [2] (CHO cells treated with 100 mM NaClO3 (24 h) vs untreated, biotinylated peptide, Figure 2B) is on record as “significantly reduced”. Further, the “affinity to cellular GAGs relative to CXCL9(74-103)” value in experiment [2] (CHO cells, biotinylated peptides, n ≥ 4, Figure 2A) is listed as “lower affinity to cellular GAGs”. In experiment [2] (n ≥ 4, Figure 2A), the “binding to CHO cells” value is reported as “dose-dependent binding”. Also, in experiment [3], the “molar excess over CXCL8 giving 50% reduction of CXCL8 binding to heparin” value turned out to be 10 fold molar excess. For the same substance, in experiment [4] (30-fold excess of peptide), the “inhibition of binding of biotinylated CXCL8 to cellular GAGs” value (“inhibition of binding … to cellular GAGs” below) came to 31%. Also, in experiment [4] (100-fold excess of peptide), the “inhibition of binding … to cellular GAGs” value is given as 50%. In addition, in experiment [5], the “maximum inhibition of CXCL1 binding to CS” value worked out at 52% and the “amount needed for same reduction of CXCL1 binding to CS relative to CXCL9(74-103)” value is on record as “three times more”.
In the case of “74KKKQKNGKKHQKKKVLKVRKSQRSRQKKTT103 [CXCL9(74-103), COOH-terminal peptide of CXCL9]”, the “affinity for LMWH” value in experiment [1] was “high and comparable affinity”. Also, the “binding to CHO cells” value in experiment [2] (n ≥ 4, Figure 2A) is “dose-dependent binding”. In addition, the “molar excess over CXCL8 giving 50% reduction of CXCL8 binding to heparin” value in experiment [3] is recorded as 10 fold molar excess. Moreover, in experiment [4] (30-fold excess of peptide), the “inhibition of binding … to cellular GAGs” value was 53%. In addition, in experiment [5], the “maximum inhibition of CXCL1 binding to CS” value is 63%.
